Laboratory results as given in ChEMBL document CHEMBL4312036, “Antiproliferative activity and mode of action analysis of novel amino and amido substituted phenantrene and naphtho[2,1-b]thiophene derivatives” (Eur J Med Chem, 2020).
pIC50: −log10 of the molar value. The source made the active and inactive calls. The calls are words filed in the database; no cut-off is given here.

Tests used:
SW-620 = assay: Antiproliferative activity against human SW620 cells incubated for 72 hrs by MTT assay; format: functional, cell-based; conditions: SW-620, 72 h
CFPAC-1 = assay: Antiproliferative activity against human CFPAC-1 cells incubated for 72 hrs by MTT assay; format: functional, cell-based; conditions: CFPAC-1, 72 h
HeLa [1] = assay: cells; conditions: Homo sapiens, 72 h
Description: Antiproliferative activity against human HeLa cells incubated for 72 hrs by MTT assay

A549 = assay: Antiproliferative activity against human A549 cells incubated for 72 hrs by MTT assay; format: functional, cell-based; conditions: A549, 72 h
HepG2 [2] = assay: cells; conditions: Homo sapiens, HepG2, 72 h
Description: Antiproliferative activity against human HepG2 cells incubated for 72 hrs by MTT assay

HFF = assay: Cytotoxicity against HFF cells assessed as reduction in cell viability incubated for 72 hrs by MTT assay; format: cell-based; conditions: Homo sapiens
HeLa [3] = assay: Upregulation of HIF1 protein level in human HeLa cells at 2 times IC50 incubated for 72 hrs by Western blot analysis; format: functional, cell-based
HeLa [4] = assay: Upregulation of HIF1 protein level in human HeLa cells at 2 times IC50 incubated for 48 hrs by Western blot analysis; format: functional, cell-based
HepG2 [5] = assay: Upregulation of HIF1 protein level in human HepG2 cells at 2 times IC50 incubated for 72 hrs by Western blot analysis; format: functional, cell-based
HepG2 [6] = assay: Downregulation of MEK1/2 protein level in human HepG2 cells at 2 times IC50 incubated for 72 hrs by Western blot analysis; format: functional, cell-based
HeLa [7] = assay: Downregulation of MEK1/2 protein level in human HeLa cells at 2 times IC50 incubated for 48 hrs by Western blot analysis; format: functional, cell-based
HeLa [8] = assay: Downregulation of MEK1/2 protein level in human HeLa cells at 2 times IC50 incubated for 72 hrs by Western blot analysis; format: functional, cell-based

Row | pIC50 (SW-620) | pIC50 (HeLa [1]) | pIC50 (A549) | pIC50 (HepG2 [2]) | SMILES | pIC50 (CFPAC-1) | pIC50 (HFF) | Activity (HeLa [3]) | Activity (HeLa [4]) | Activity (HepG2 [5]) | Activity (HepG2 [6]) | Activity (HeLa [7]) | Activity (HeLa [8])
1 | 4.21 | 4.55 | 4.19 | 4.03 | CC(C)CNC(=O)c1cc2ccccc2c2ccccc12 | 4.16 | < 4.00 |  |  |  |  |  | 
2 | 4.37 | 4.93 | 4.30 | 4.49 | N#Cc1cc2ccc(F)cc2c2ccsc12 | 4.29 | 4.79 |  |  |  |  |  | 
3 | 6.05 | 4.97 | 4.56 | 4.07 | CC(C)CNC(=O)c1ccc2cc(C(=O)NCC(C)C)c3sccc3c2c1 | < 4.00 | 6.13 |  |  |  |  |  | 
4 | 4.21 | 6.68 | 4.32 | 6.52 | N#C/C(=C\c1ccc(C#N)cc1)c1cccs1 | 4.28 | < 4.00 | Active | Active | Active | Active |  | Active
5 | < 4.00 | 4.40 | 4.19 | 4.12 | CC(C)CNC(=O)c1cc2ccccc2c2ccsc12 | 4.01 | 4.01 |  |  |  |  |  | 
6 | 4.42 | 5.46 | 4.34 | 5.11 | N#C/C(=C\c1ccc(F)cc1)c1ccccc1 | 4.33 | 4.28 |  |  |  |  |  | 
7 | < 4.00 | 4.70 | 4.23 | 4.36 | N#C/C(=C\c1ccccc1)c1cccs1 | 4.01 | 4.07 |  |  |  |  |  | 
8 | 4.44 | 5.44 | 4.39 | 5.28 | N#C/C(=C\c1ccc(F)cc1)c1cccs1 | 4.47 | 4.06 |  |  |  |  |  | 

Further lines, the compound ahead of its results:

Row | SMILES | pIC50 (SW-620) | pIC50 (HeLa [1]) | pIC50 (A549) | pIC50 (HepG2 [2]) | pIC50 (CFPAC-1) | pIC50 (HFF) | Activity (HeLa [3]) | Activity (HeLa [4]) | Activity (HepG2 [5]) | Activity (HepG2 [6]) | Activity (HeLa [7]) | Activity (HeLa [8])
9 | N#Cc1ccc2cc(C#N)c3ccccc3c2c1 | 5.17 | 6.19 | 5.48 | 4.96 | 5.09 | 5.75 |  |  |  |  |  | 
10 | N#C/C(=C\c1ccc(C#N)cc1)c1ccccc1 | 5.04 | 6.48 | 5.08 | 6.28 | 5.17 | 5.22 | Active | Active | Active | Active | Active | 
11 | N#Cc1cc2ccc(N3CCNCC3)cc2c2ccccc12 | 5.34 | 5.48 | 5.26 | 4.71 | 5.21 | 4.62 |  |  |  |  |  | 
12 | N#Cc1cc2ccc(N3CCCCC3)cc2c2ccsc12 | 4.19 | 4.49 | 4.21 | 4.21 | 4.59 | 4.21 |  |  |  |  |  | 
13 | N#Cc1cc2ccccc2c2ccsc12 | 4.15 | 4.52 | 4.30 | 4.27 | 4.25 | 4.07 |  |  |  |  |  | 
14 | N#Cc1cc2ccc(F)cc2c2ccccc12 | 5.11 | 5.08 | 5.02 | 4.74 | 4.88 | 5.46 |  |  |  |  |  | 
15 | N#Cc1cc2ccccc2c2ccccc12 | < 4.00 | 4.52 | 4.14 | 4.31 | 4.10 | < 4.00 |  |  |  |  |  | 
16 | CC(C)CNc1ccc2cc(C#N)c3ccccc3c2c1 | 4.36 | 4.63 | 4.51 | 4.47 | 4.45 | 4.28 |  |  |  |  |  | 
17 | CN(C)CCCNC(=O)c1ccc2cc(C(=O)NCCCN(C)C)c3sccc3c2c1 | 5.36 | 5.38 | 5.25 | 4.79 | 5.18 | 5.23 |  |  |  |  |  | 
18 | N#Cc1ccc2cc(C#N)c3sccc3c2c1 | 5.22 | 6.35 | 5.26 | 5.14 | 5.09 | 5.29 |  |  |  |  |  | 
19 | N#C/C(=C\c1ccccc1)c1ccccc1 | < 4.00 | 4.31 | 4.19 | 4.09 | 4.05 | 4.03 |  |  |  |  |  | 
20 | CN(C)CCCNC(=O)c1cc2ccccc2c2ccsc12 | 4.75 | 4.84 | 4.69 | 4.63 | 4.76 | 4.62 |  |  |  |  |  | 
21 | N#Cc1cc2ccc(N3CCNCC3)cc2c2ccsc12 | 5.59 | 5.62 | 5.15 | 4.68 | 5.44 | 4.43 |  |  |  |  |  | 
22 | N#Cc1cc2ccc(N3CCCCC3)cc2c2ccccc12 | < 4.00 | 4.23 | 4.23 | 4.09 | < 4.00 | < 4.00 |  |  |  |  |  | 
23 | CC(C)CNc1ccc2cc(C#N)c3sccc3c2c1 | 4.38 | 4.73 | 4.51 | 4.32 | 4.73 | 4.01 |  |  |  |  |  | 
